In ChEMBL document CHEMBL5385952, “Facile Synthesis and First Antifungal Exploration of Tetracyclic Meroterpenoids: (+)-Aureol, (-)-Pelorol, and Its Analogs” (J Nat Prod, 2024) one finds Activity and EC50 data, which are given here for 13 compounds.

The term EC50 denotes the midpoint of the concentration-response curve.

In assay [1] the test system is Sclerotinia sclerotiorum. The assay is described as follows: Antifungal activity against Sclerotinia sclerotiorum at 150 uM. The class given is functional.
Assay [2] concerns Botrytis cinerea. As to the kind of experiment: Antifungal activity against Botrytis cinerea at 150 uM. Format: functional.
In assay [3] the test system is Phytophthora capsici. As to the kind of experiment: Antifungal activity against Phytophthora capsici at 150 uM. The class given is functional.
The test system of assay [4] is Fusarium graminearum. As to the kind of experiment: Antifungal activity against Fusarium graminearum at 150 uM. The class given is functional.
Assay [5] has as its system Sclerotinia sclerotiorum. As to the kind of experiment: Antifungal activity against Sclerotinia sclerotiorum.
In assay [6] the test system is Rhizoctonia solani. As to the kind of experiment: Antifungal activity against Rhizoctonia solani.
The subject of assay [7] is Rhizoctonia solani. As to the kind of experiment: Antifungal activity against Rhizoctonia solani at 150 uM. The class given is functional.

Structures are written as SMILES. Some results are limits rather than exact numbers.

In the case of `CC1(C)CCC[C@]2(C)[C@H]3Cc4c(O)c(O)cc(C(=O)O)c4[C@]3(C)CC[C@@H]12`, the Activity turned out to be 76% in assay [1]; 56% in assay [2]; 55% in assay [3]; 51% in assay [4]; 73% in assay [7]. Further, the values for the half-maximal effective concentration (EC50) in assay [5] and in assay [6] were 26 µM and 18 µM, respectively.
Turning to `CC1(C)CCC[C@]2(C)[C@H]3Cc4c(O)c(O)cc(C=O)c4[C@]3(C)CC[C@@H]12`, the Activity in assay [1] is reported as 28%; in assay [2], 33%; in assay [3], 29%; in assay [4], 55%; in assay [7], 43%.
The corresponding values for `CC1(C)CCC[C@]2(C)[C@H]3Cc4cc(O)cc(O)c4[C@]3(C)CC[C@@H]12` are 43%, 39%, 65%, 60% and 68%.
The corresponding values for `CC1(C)CCC[C@]2(C)[C@H]3Cc4c(ccc(O)c4O)[C@]3(C)CC[C@@H]12` are 63%, 43%, 60%, 71% and 62%.
The corresponding values for `CCc1cc(O)c(O)c2c1[C@]1(C)CC[C@H]3C(C)(C)CCC[C@]3(C)[C@H]1C2` are 37%, 37%, 32%, 53% and 41%.
Turning to `C[C@H]1CC[C@H]2C(C)(C)CCC[C@]23Oc2ccc(O)cc2C[C@]13C` [AUREOL], the concentration for a half-maximal effect (EC50) came out at 19 µM in assay [5] and 6.9 µM in assay [6].
The corresponding values for `CC1(C)CCC[C@]2(C)[C@H]3Cc4cc(O)ccc4O[C@]3(C)CC[C@@H]12` are 29 µM and 16 µM.
Turning to `COC(=O)c1cc(O)c(O)c2c1[C@]1(C)CC[C@H]3C(C)(C)CCC[C@]3(C)[C@H]1C2` [PELOROL], the Activity is 75% in assay [1]; 52% in assay [2]; 40% in assay [3]; 62% in assay [4]; 87% in assay [7]. Also, the concentration for a half-maximal effect (EC50) in assay [5] is 49 µM; in assay [6] it was 7.7 µM.
As to `Cc1cc(O)cc2c1[C@]1(C)CC[C@H]3C(C)(C)CCC[C@]3(C)[C@H]1C2`, the Activity in assay [1] is 11%; in assay [2] it was 7%; in assay [3] it was 5%; in assay [4] it was 11%; in assay [7] it was 16%.
In the case of `CC1(C)CCC[C@]2(C)[C@H]3Cc4c(cc(C=O)c(O)c4O)[C@]3(C)CC[C@@H]12`, the Activity in assay [1] was 34%; in assay [2] it was 15%; in assay [3] it was 3%; in assay [4] it was 37%; in assay [7], 3%.
On to `Cc1cc(O)c(O)c2c1[C@]1(C)CC[C@H]3C(C)(C)CCC[C@]3(C)[C@H]1C2`, for which the Activity in assay [1] is listed as 49%; in assay [2], 70%; in assay [3] it was 59%; in assay [4] it was 42%; in assay [7], 50%.
Turning to `Cc1cc2c(cc1O)C[C@@H]1[C@@]3(C)CCCC(C)(C)[C@@H]3CC[C@@]21C`, the Activity came to 31% in assay [1]; 24% in assay [2]; 9% in assay [3]; 32% in assay [4]; 58% in assay [7].
Consider `CC1(C)CCC[C@]2(C)[C@H]3Cc4cc(O)ccc4[C@]3(C)CC[C@@H]12`, for which the Activity in assay [1] was found to be 51%; in assay [2], 34%; in assay [3] it was 33%; in assay [4], 37%; in assay [7], 62%. The concentration giving a half-maximal response (EC50) in assay [5] was greater than 150 µM; in assay [6], 34 µM.
